Source: ChEMBL document CHEMBL3297657, “Synthesis and antitumor activities of novel α-aminophosphonate derivatives containing an alizarin moiety” (Eur J Med Chem, 2014)
Active and inactive are the calls of the source. The rule behind the calls is not given here.

Key:
CNE = assay: Cytotoxicity against human CNE cells after 48 hrs by MTT assay; assay type: functional, cell-based
MGC-803 = assay: Cytotoxicity against human MGC803 cells after 48 hrs by MTT assay; assay type: functional, cell-based; conditions: MGC-803, 48 h
NCI-H460 [1] = assay: Cytotoxicity against human NCI-H460 cells after 48 hrs by MTT assay; assay type: functional, cell-based; conditions: NCI-H460, 48 h
KB = assay: Cytotoxicity against human KB cells after 48 hrs by MTT assay; assay type: functional, cell-based
HUVEC = assay: Cytotoxicity against HUVEC after 48 hrs by MTT assay; assay type: cell-based; conditions: Homo sapiens
NCI-H460 [2] = assay: Induction of apoptosis in human NCI-H460 cells assessed as early apoptotic cells at 5 to 20 uM after 24 hrs by Annexin V/propidium iodide staining-based flow cytometry relative to control; assay type: functional, cell-based
HeLa = assay: cells; conditions: Homo sapiens, 48 h
Description: Cytotoxicity against human HeLa cells after 48 hrs by MTT assay

HCT-116 = assay: cells; conditions: Homo sapiens, HCT-116, 48 h
Description: Cytotoxicity against human HCT116 cells after 48 hrs by MTT assay

A549 = assay: cells; conditions: Homo sapiens, A549, 48 h
Description: Cytotoxicity against human A549 cells after 48 hrs by MTT assay

HepG2 = assay: cells; conditions: Homo sapiens, HepG2, 48 h
Description: Cytotoxicity against human HepG2 cells after 48 hrs by MTT assay

SMILES	IC50 (HeLa) [µM]	IC50 (HCT-116) [µM]	IC50 (A549) [µM]	IC50 (HepG2) [µM]	IC50 (CNE) [µM]	IC50 (MGC-803) [µM]	IC50 (NCI-H460 [1]) [µM]	IC50 (KB) [µM]	IC50 (HUVEC) [µM]	Activity (NCI-H460 [2])
CCOP(=O)(OCC)C(NC(=O)C(C)Oc1ccc2c(c1O)C(=O)c1ccccc1C2=O)c1ccccc1 (centres undefined)	> 50	8.07	34.6	> 50	> 50	6.66	8.11	0.65	> 50	Active
CCOP(=O)(OCC)C(NC(=O)C(C)Oc1ccc2c(c1O)C(=O)c1ccccc1C2=O)c1cccc(OC)c1 (centres undefined)	> 50	17	36	> 50	> 50	27.6	14.9	5.78	> 50	
CCOP(=O)(OCC)C(NC(=O)C(C)Oc1ccc2c(c1O)C(=O)c1ccccc1C2=O)c1ccccc1Cl (centres undefined)	20.9	14.8	10.1	19.9	43.1	11	3.8	0.14	19.9	Active
CCOP(=O)(OCC)C(NC(=O)C(C)Oc1ccc2c(c1O)C(=O)c1ccccc1C2=O)c1cccc(C)c1 (centres undefined)	17.4	36.2	25.6	> 50	30.5	8.02	9.31	9.68	> 50	Active
CCOP(=O)(OCC)C(NC(=O)C(C)Oc1ccc2c(c1O)C(=O)c1ccccc1C2=O)c1ccc(Cl)cc1 (centres undefined)	12.7	15.6	10.7	31.8	48.7	25.1	5.11	0.2	31.8	
CCOP(=O)(OCC)C(NC(=O)C(C)Oc1ccc2c(c1O)C(=O)c1ccccc1C2=O)c1ccc(F)cc1 (centres undefined)	34.1	17.9	19.4	25.3	> 50	22.9	8.92	0.87	25.3	
CCOP(=O)(OCC)C(NC(=O)COc1ccc2c(c1O)C(=O)c1ccccc1C2=O)c1ccc(C)cc1 (centres undefined)	> 50	13.7	33.8	> 50		12.6	12.2	9.37	> 50	
CCOP(=O)(OCC)C(NC(=O)C(C)Oc1ccc2c(c1O)C(=O)c1ccccc1C2=O)c1ccccc1Br (centres undefined)	41.6	7.31	11.4	24.1	47.3	15.1	4.11	0.13	24.1	Active
CCOP(=O)(OCC)C(NC(=O)C(C)Oc1ccc2c(c1O)C(=O)c1ccccc1C2=O)c1cccc(F)c1 (centres undefined)	> 50	47.1	35.1	> 50	> 50	28.9	25.9	9.12	> 50	

The next lines start with results.

IC50 (HeLa) [µM]	IC50 (HCT-116) [µM]	IC50 (A549) [µM]	IC50 (HepG2) [µM]	SMILES	IC50 (CNE) [µM]	IC50 (MGC-803) [µM]	IC50 (NCI-H460 [1]) [µM]	IC50 (KB) [µM]	IC50 (HUVEC) [µM]	Activity (NCI-H460 [2])
> 50	16.3	38	> 50	CCOP(=O)(OCC)C(NC(=O)COc1ccc2c(c1O)C(=O)c1ccccc1C2=O)c1ccccc1Cl (centres undefined)		39.2	21.2	1.55	> 50	
> 50	36.3	49	> 50	CCOP(=O)(OCC)C(NC(=O)COc1ccc2c(c1O)C(=O)c1ccccc1C2=O)c1ccc(F)cc1 (centres undefined)		30.9	47.9	6.45	> 50	
> 50	30.2	39	> 50	CCOP(=O)(OCC)C(NC(=O)COc1ccc2c(c1O)C(=O)c1ccccc1C2=O)c1ccccc1OC (centres undefined)		29.2	20.8	1.24	> 50	
> 50	49.8	44.1	> 50	CCOP(=O)(OCC)C(NC(=O)COc1ccc2c(c1O)C(=O)c1ccccc1C2=O)c1cccc(OC)c1 (centres undefined)		38	27.9	15.5	> 50	
10.6	16	47	28.5	CCOP(=O)(OCC)C(NC(=O)COc1ccc2c(c1O)C(=O)c1ccccc1C2=O)c1cccc(C)c1 (centres undefined)		37.9	33.9	12	> 50	
